In PubChem BioAssay AID330 (DTP/NCI, 2004):
Values joined by “and” are separate entries in the source; they are usually repeats but may differ in a detail not shown here. Equal entries are not always repeated. Toxic doses and inconclusive results are not listed.

System: P388 leukemia ip, CD2F1 mice, survival T/C
Experiment: NCI In Vivo Anticancer Drug Screen. Data for tumor model P388 Leukemia (intraperitoneal) in CD2F1 (CDF1) mice
Conditions: endpoint: median survival time, higher = longer survival
Procedure, shortened: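 Mice carrying the transplanted tumor received test compound or vehicle. Survival was recorded in each group, and the value is the treated-group measurement divided by that of the vehicle-treated control group.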

[1] = dose: 100.0 mg/kg/injection, schedule: Q04DX002 (ip), vehicle: saline with Tween-80
[2] = dose: 200.0 mg/kg/injection, schedule: Q04DX002 (ip), vehicle: saline with Tween-80
[3] = dose: 400.0 mg/kg/injection, schedule: Q04DX002 (ip), vehicle: saline with Tween-80
[4] = dose: 12.5 mg/kg/injection, schedule: Q01DX009 (ip), vehicle: other
[5] = dose: 100.0 mg/kg/injection, schedule: Q01DX009 (ip), vehicle: saline with Tween-80
[6] = dose: 25.0 mg/kg/injection, schedule: Q01DX009 (ip), vehicle: saline with Tween-80
[7] = dose: 50.0 mg/kg/injection, schedule: Q01DX009 (ip), vehicle: saline with Tween-80

SMILES: C=CC(C)(CCC=C(C)C)ON(CC)CC (centres undefined)
- T/C [1]: 108 % of control
- T/C [2]: 113 % of control
- T/C [3]: 92 % of control

SMILES: Cc1cc(=O)c(C#N)c(C)o1
- T/C (dose: 60.0 mg/kg/injection, schedule: Q01DX005 (ip), vehicle: saline with Tween-80): 98 % of control
- T/C (dose: 120.0 mg/kg/injection, schedule: Q01DX005 (ip), vehicle: saline with Tween-80): 97 % of control
- T/C (dose: 240.0 mg/kg/injection, schedule: Q01DX005 (ip), vehicle: saline with Tween-80): 90 % of control

SMILES: CC(=O)Cc1nc2ccccc2[nH]c1=O
- T/C (dose: 15.0 mg/kg/injection, schedule: Q01DX005 (ip), vehicle: Klucel (hydroxypropylcellulose) (HPC)): 92 % of control
- T/C (dose: 30.0 mg/kg/injection, schedule: Q01DX005 (ip), vehicle: Klucel (hydroxypropylcellulose) (HPC)): 90 % of control and 96 % of control
- T/C (dose: 60.0 mg/kg/injection, schedule: Q01DX005 (ip), vehicle: Klucel (hydroxypropylcellulose) (HPC)): 90 % of control and 98 % of control
- T/C (dose: 120.0 mg/kg/injection, schedule: Q01DX005 (ip), vehicle: Klucel (hydroxypropylcellulose) (HPC)): 91 % of control
- T/C (dose: 240.0 mg/kg/injection, schedule: Q01DX005 (ip), vehicle: Klucel (hydroxypropylcellulose) (HPC)): 100 % of control

SMILES: O=C(O)/C=N/NS(=O)(=O)c1cccs1
- T/C [4]: 119 % of control

SMILES: CCNC1=CC(=O)c2ncccc2C1=O
- T/C (dose: 3.13 mg/kg/injection, schedule: Q01DX009 (ip), vehicle: DMSO): 99 % of control
- T/C (dose: 6.25 mg/kg/injection, schedule: Q01DX009 (ip), vehicle: DMSO): 100 % of control
- T/C (dose: 12.5 mg/kg/injection, schedule: Q01DX009 (ip), vehicle: DMSO): 99 % of control
- T/C (dose: 25.0 mg/kg/injection, schedule: Q01DX009 (ip), vehicle: DMSO): 95 % of control

SMILES: CCOc1ccc(Br)cc1/C=N/NS(=O)(=O)c1ccc(C)cc1
- T/C [5]: 123 % of control

SMILES: NC(CSC(c1ccccc1)(c1ccccc1)c1ccc(CBr)cc1)C(=O)O (centres undefined)
- T/C (dose: 12.5 mg/kg/injection, schedule: Q01DX009 (ip), vehicle: Klucel (hydroxypropylcellulose) (HPC)): 86 % of control
- T/C [4]: 120 % of control
- T/C (dose: 25.0 mg/kg/injection, schedule: Q01DX009 (ip), vehicle: Klucel (hydroxypropylcellulose) (HPC)): 90 % of control
- T/C (dose: 50.0 mg/kg/injection, schedule: Q01DX009 (ip), vehicle: Klucel (hydroxypropylcellulose) (HPC)): 95 % of control
- T/C (dose: 100.0 mg/kg/injection, schedule: Q01DX009 (ip), vehicle: Klucel (hydroxypropylcellulose) (HPC)): 88 % of control
- T/C (dose: 100.0 mg/kg/injection, schedule: Q01DX009 (ip), vehicle: other): 151 % of control and 159 % of control
- T/C (dose: 200.0 mg/kg/injection, schedule: Q01DX009 (ip), vehicle: Klucel (hydroxypropylcellulose) (HPC)): 90 % of control
- T/C (dose: 200.0 mg/kg/injection, schedule: Q01DX009 (ip), vehicle: other): 162 % of control and 178 % of control
- T/C (dose: 400.0 mg/kg/injection, schedule: Q01DX009 (ip), vehicle: Klucel (hydroxypropylcellulose) (HPC)): 94 % of control
- T/C (dose: 400.0 mg/kg/injection, schedule: Q01DX009 (ip), vehicle: other): 182 % of control

SMILES: C=CC(C)(C)N1C(=O)C(C(C)=O)=C(O)C1Cc1c[nH]c2ccccc12 (centres undefined)
- T/C (dose: 8.75 mg/kg/injection, schedule: Q01DX005 (ip), vehicle: Klucel (hydroxypropylcellulose) (HPC)): 99 % of control
- T/C (dose: 17.5 mg/kg/injection, schedule: Q01DX005 (ip), vehicle: Klucel (hydroxypropylcellulose) (HPC)): 99 % of control
- T/C (dose: 35.0 mg/kg/injection, schedule: Q01DX005 (ip), vehicle: Klucel (hydroxypropylcellulose) (HPC)): 97 % of control

SMILES: Nc1cc2cc([N+](=O)[O-])ccc2oc1=O
- T/C (dose: 50.0 mg/kg/injection, schedule: Q01DX005 (ip), vehicle: Klucel + Tween-80): 96 % of control
- T/C (dose: 100.0 mg/kg/injection, schedule: Q01DX005 (ip), vehicle: Klucel + Tween-80): 90 % of control
- T/C (dose: 200.0 mg/kg/injection, schedule: Q01DX005 (ip), vehicle: Klucel + Tween-80): 87 % of control

SMILES: CN(C)CCN1C(=O)c2cccc3cc([N+](=O)[O-])cc(c23)C1=O
- T/C (dose: 0.78 mg/kg/injection, schedule: Q01DX009 (ip), vehicle: saline with Tween-80): 101 % of control
- T/C (dose: 3.12 mg/kg/injection, schedule: Q01DX009 (ip), vehicle: saline with Tween-80): 117 % of control and 124 % of control

SMILES: CC(=O)Nc1c(Cl)c(Cl)c2c(c1Cl)C(=O)c1cc(Cl)ccc1-2
- T/C [6]: 90 % of control
- T/C [7]: 90 % of control
- T/C [5]: 90 % of control

SMILES: O=C1c2ccccc2C(=O)N1/N=C/c1cccc(Cl)c1
- T/C [1]: 100 % of control
- T/C [2]: 93 % of control
- T/C [3]: 89 % of control

SMILES: C#CCOc1ccc(C(F)(F)F)cc1
- T/C [6]: 105 % of control
- T/C [7]: 118 % of control
- T/C [5]: 119 % of control
